Literature values in patent publication US20090092668A1, “ACETAMINOPHEN FORMULATION FOR JOINT PAIN RELIEF” (priority 2006, published 2009).

Columns and labels:
[1] = one subject

SMILES | pain status ([1]; ¼-½ tsp. daily for about 16 months) | pain relief ([1]; ½ tsp. daily in diet, by the end of the second week) | excreted as exhaled carbon dioxide (of the absorbed glucosamine) [%] | excreted in the urine (of the absorbed glucosamine) [%] | remaining in the tissues (of the absorbed glucosamine) [%] | absorbed from the small intestine (sulfate form)
CS(C)(=O)=O [MSM, Methylsulfonylmethane] | substantially pain-free life | almost total pain relief | – | – | – | –
N[C@H]1C(O)O[C@H](CO)[C@@H](O)[C@@H]1O (stereo partly drawn) [glucosamine] | – | – | 65 | 25 | 10 | over 90%
